Paper PMC12720125 (Redox Biology, 2025)

How the values were obtained:
[1] = target: T1, lymphoid-specific helicase (LSH) (Homo sapiens, UniProt Q9NRZ9); experiment: SPR; assay type: binding
T1 sequence (Q9NRZ9 1-838): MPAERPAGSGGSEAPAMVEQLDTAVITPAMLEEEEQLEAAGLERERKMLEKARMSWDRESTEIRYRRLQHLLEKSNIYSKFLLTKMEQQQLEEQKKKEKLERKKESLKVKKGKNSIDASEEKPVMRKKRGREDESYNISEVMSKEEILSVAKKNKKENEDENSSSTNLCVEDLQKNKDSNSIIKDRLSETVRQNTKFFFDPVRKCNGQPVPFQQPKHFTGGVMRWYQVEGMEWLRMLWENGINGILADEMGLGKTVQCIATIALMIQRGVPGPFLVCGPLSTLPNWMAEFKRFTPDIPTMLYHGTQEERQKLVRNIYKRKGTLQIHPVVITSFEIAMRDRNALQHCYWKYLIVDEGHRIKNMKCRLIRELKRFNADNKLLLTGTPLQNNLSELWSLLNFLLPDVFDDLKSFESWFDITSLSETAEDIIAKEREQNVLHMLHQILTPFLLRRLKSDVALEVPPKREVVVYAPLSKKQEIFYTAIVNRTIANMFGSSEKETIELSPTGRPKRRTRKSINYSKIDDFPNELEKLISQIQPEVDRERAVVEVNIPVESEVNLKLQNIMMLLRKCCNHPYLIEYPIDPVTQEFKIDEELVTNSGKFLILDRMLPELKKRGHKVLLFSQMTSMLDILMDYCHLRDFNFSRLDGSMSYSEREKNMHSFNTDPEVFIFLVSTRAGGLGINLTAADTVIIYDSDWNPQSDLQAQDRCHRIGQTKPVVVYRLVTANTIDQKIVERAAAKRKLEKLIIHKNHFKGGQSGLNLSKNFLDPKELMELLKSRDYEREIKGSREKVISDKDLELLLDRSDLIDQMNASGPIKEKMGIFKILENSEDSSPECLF

[2] = target: T1, lymphoid-specific helicase (LSH); experiment: KD determination, SPR; assay type: binding

Row | Structure (SMILES) | Kd [1] [µM] | Kd [2] [µM]
1 | C=C1C(=O)O[C@@H]2O[C@@]3(C)CC[C@H]4[C@H](C)CC[C@@H]1[C@@]24OO3 [ATT, artemisitene] | 6.18 | –
2 | C[C@@H]1CC[C@H]2[C@@H](C)C(=O)O[C@@H]3O[C@@]4(C)CC[C@@H]1[C@]32OO4 [artemisinin] | – | 32.2
